Source: paper PMC8691750, “Euphorbia Factor L2 ameliorates the Progression of K/BxN Serum-Induced Arthritis by Blocking TLR7 Mediated IRAK4/IKKβ/IRF5 and NF-kB Signaling Pathways” (Frontiers in Pharmacology, 2021)
Entries after “also recorded” stand apart in the source; their conditions may differ.

How the values were obtained:
[1] = tested on: IL-1β and IL-6 in the ankle; test: Immunochemistry staining for IL-1β and IL-6 in ankles; type: in vivo, C57BL/6 mice; conditions: STA mice; EFL2 15 or 40 mg/kg
Method: The dissected left ankles were fixed in 4% formaldehyde overnight. Embedding, de-paraffinization, and re-hydration of the ankle sections were the same as described for H&E staining. After treated with 3% […] for 10 min, the tissue sections were immersed in a 10 mM sodium citrate buffer (pH 6.0) for 15 min at 95°C, and washed with PBS. The sections were then blocked with 5% goat serum in PBS, and incubated with primary antibodies overnight at 4°C. Primary antibodies were as follows: rabbit anti-mouse IL-1β (1:600, Abcam, China); rabbit anti-mouse IL-6 (1:50, Abcam, China). The signal was visualized using an Envision System (DAKO, United States). The images were then acquired by microscopy (Leica DMil).

[2] = tested on: synovial hyperplasia and articular inflammatory cells infiltration in knee joints; test: Histological assessment (H&E) of knee joints of STA mice; type: in vivo, C57BL/6 mice
Method: (§1) K/BxN serum was collected from K/BxN mice at 8 weeks of age, pooled, aliquoted and stored at -20 °C. K/BxN serum-transfer arthritis (STA) model was induced by intraperitoneal (i.p.) application of 150 μL of serum at day 0. Clinical score for arthritis severity was assessed using a 0–4 point scale for each paw at various time points (0–16 total score) as described previously ([Luo et al., 2011]). 8-week old male C57BL/6 mice were purchased from Dashuo Animal Center (China, Chengdu), maintained at 25°C, and exposed to 12-h light and dark cycles. Mice were fed with standard laboratory chow and water with 1 week of acclimatization. Naive mice were used as the control group. Except the control mice, all mice were i. p. injected with 150 μL of serum, then randomly divided into the following groups and treated with different compounds daily for the consecutive 8 days: 1) STA group; 2) Solvent control group, mice were gavaged with the solvent; 3) Dexamethasone (DEX) group, mice were gavaged with 30 mg/kg DEX; 4) EFL2 group 1, mice were gavaged with 40 mg/kg EFL2; 5) EFL2 group 2, mice were intraperitoneally injected with 15 mg/kg EFL2; 6) EFL2 group 3, […] were intraperitoneally injected with 40 mg/kg EFL2. […] All animal experiments were conducted in accordance with ethical regulation for animal care and use in China.
The left knee joints were removed on day 13 post STA and fixed in 4% formaldehyde overnight at 4°C. The tissues were decalcified in EDTA and sectioned after embedding in paraffin. 5 μm sections were deparaffinized with xylene, re-hydrated with 100, 95 and 80% ethanol and then stained with hematoxylin and eosin (H&E). Histopathological changes in the knee joints were measured using a semiquantitative scoring system (0–4 scale) to assess synovial hyperplasia and articular inflammatory cells infiltration as previously described ([Yamanishi et al., 2002]).

[3] = tested on: LPS-induced lung injury; parameters: method as in Zhang et al., 2018; conditions: mice; ref Zhang et al., 2018; cited from earlier work
[4] = tested on: PBMCs; test: Cell viability, CCK8 assay, PBMCs; type: cell-based, human; conditions: CCK8, at 100 μM
Method: (§2) RAW264.7 cells, a mouse macrophage cell line, were cultured in DMEM medium containing 10% fetal bovine serum (FBS), 1% penicillin-streptomycin and maintained at 37 °C in 5% CO2 humidified air. Bone marrow-derived macrophages (BMDMs) generation was performed as following description. In brief, bone marrow cells were harvested from tibias and femurs of C57BL/6 mice and differentiated for 7 days in DMEM medium supplemented with 10% FBS, 1% penicillin-streptomycin and 50 ng/ml M-CSF. For human peripheral blood mononuclear cells (PBMCs) preparation, 5 ml peripheral venous blood was obtained from healthy donors in West China Hospital. PBMCs were isolated with Human Lymphocyte Separation Medium (LTS1077, Tian Jing, China) according to the manufacturer’s instructions. The experimental protocols were performed according to the approved guidelines established by the Institutional Human Research Subject Protection Committee of the Ethics Committee of West China Hospital, Sichuan University, China.
(§3) The effects of EFL2 on RAW264.7 cells, BMDMs and PBMCs viability were evaluated by Cell Counting Kit-8 (CCK8) assay (Dojindo, Japan). […] The optical absorbance at 450 nm was read with a Biotek Eon™ microplate reader (Biotek, Vermont, United States).

[5] = tested on: SMMC-7721 and Hep G2 cells; parameters: method as in Fan et al., 2019; conditions: via STAT3 phosphorylation; ref Fan et al., 2019; cited from earlier work
[6] = tested on: K/BxN serum-transfer arthritis (STA) model; test: K/BxN serum-transfer arthritis (STA) model, arthritic index / clinical score; type: in vivo, C57BL/6 mice; conditions: STA mice
Method: as §1

[7] = tested on: bone marrow-derived macrophages (BMDMs); test: Cell viability, CCK8 assay, BMDMs; type: cell-based, C57BL/6 mice; conditions: CCK8, 0.1-100 μM, 20 h
Method: as §2, §3

[8] = biological target: T1, IRF5 (Mus musculus, UniProt P56477); test: IRF5 plasmid transfection (overexpression) in RAW264.7 cells; type: cell-based; conditions: RAW264.7 transfected with IRF5 plasmid
T1 construct: host or cells: RAW264.7
Method: RAW264.7 cells (4×10^5 cells/well) were seeded into 6-well plates before transfection with the plasmid. When cells confluency reached 60%, RAW264.7 cells were transfected with plasmid IRF5-mouse vector (Origene, United States) using TransEasy™ Transfection Reagent (FOREGENE, China). IRF5 plasmid was suspended with transfection reagent as 1:1.5. Cells were incubated at 37°C for 24 h, then treated with EFL2 and R837 for another 24 h. The supernatant was collected for IL-1β and IL-6 measurements using ELISA kits as described above. For western blot detection, RAW264.7 cells were pretreated with EFL2 (10 µM) for 1 h and stimulated with R837 (20 μg/ml) for 40 min after IRF5 plasmid transfection. Cell lysates were prepared as described above.

T1 sequence (P56477 whole entry): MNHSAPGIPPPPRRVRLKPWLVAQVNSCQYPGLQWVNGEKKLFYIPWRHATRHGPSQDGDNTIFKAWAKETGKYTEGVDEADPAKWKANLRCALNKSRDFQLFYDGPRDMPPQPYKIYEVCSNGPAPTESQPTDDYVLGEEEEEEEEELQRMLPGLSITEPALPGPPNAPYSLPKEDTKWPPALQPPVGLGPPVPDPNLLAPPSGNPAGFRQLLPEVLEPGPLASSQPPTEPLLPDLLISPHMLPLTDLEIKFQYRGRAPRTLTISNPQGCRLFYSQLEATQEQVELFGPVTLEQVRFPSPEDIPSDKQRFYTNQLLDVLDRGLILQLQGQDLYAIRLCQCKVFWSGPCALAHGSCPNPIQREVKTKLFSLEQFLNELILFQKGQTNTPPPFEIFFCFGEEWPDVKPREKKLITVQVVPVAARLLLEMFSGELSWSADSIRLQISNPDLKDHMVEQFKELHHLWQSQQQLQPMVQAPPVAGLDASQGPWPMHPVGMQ

Compound: C=C1C(OC(=O)c2ccccc2)CC2C(C=C(C)C(=O)C3(OC(C)=O)CC(C)C(OC(=O)c4ccccc4)C3C1OC(C)=O)C2(C)C (stereo not drawn) [EFL2, Euphorbia factor L2]
- IL-1β and IL-6 production in local inflamed joints (immunohistochemical staining) [1]: could inhibit
- inflammatory cells infiltration and synovium hyperplasia in joints ([2]; EFL2 15 mg/kg i.p.): only partially reduced
- inflammatory status and inflamed synovium in joints ([2]; EFL2 40 mg/kg i.p.): significantly inhibited
- effect on LPS-induced lung injury [3]: robust improving effect
- PBMCs viability [4]: did not affect
- SMMC-7721 and Hep G2 cells proliferation and migration [5]: suppressing
- arthritis symptoms (clinical score) ([6]; EFL2 15 mg/kg i.p. daily, particularly acute phase): to a moderate extent, alleviated
- joint swelling and redness (clinical score) ([6]; EFL2 40 mg/kg i.p. daily): dramatically improved
- arthritis severity (clinical score) ([6]; EFL2 40 mg/kg oral (gavage) daily, 40 mg/kg): did not affect; also recorded: hardly improved
- concentration at which significant cytotoxicity is displayed [7]: ≥ 25 µM
- suppressive effect of EFL2 on nuclear translocation of IRF5 after overexpression of IRF5 ([8]; EFL2 10 μM, R837): significantly reversed
- EFL2-induced reduction of IL-1β and IL-6 after overexpression of IRF5 ([8]; EFL2 and R837 24 h): effectively reversed
